Reference: patent US12473295B2, “Substituted straight chain spiro derivatives” (Janssen Pharmaceutica NV, priority 2019, dated 2025)
Where a name gives a salt, the structure may show the parent alone.

Key:
[1] = target: menin/MLL (terbium chelate-labeled menin, FITC-MBM1 peptide) (Homo sapiens (Human), UniProt O00255); test: Menin/MLL homogenous time-resolved fluorescence (HTRF) assay; format: binding; conditions: HTRF-30 min incubation IC50, 30 min incubation;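 also: IC50 from percent inhibition of HTRF signal, normalized between wells without competitor and wells with a saturating competitor that displaces FITC-MBM1 from His-tagged menin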
Chain of menin/MLL (terbium chelate-labeled menin, FITC-MBM1 peptide) (O00255 other isoform, or with tags, fused parts or gaps): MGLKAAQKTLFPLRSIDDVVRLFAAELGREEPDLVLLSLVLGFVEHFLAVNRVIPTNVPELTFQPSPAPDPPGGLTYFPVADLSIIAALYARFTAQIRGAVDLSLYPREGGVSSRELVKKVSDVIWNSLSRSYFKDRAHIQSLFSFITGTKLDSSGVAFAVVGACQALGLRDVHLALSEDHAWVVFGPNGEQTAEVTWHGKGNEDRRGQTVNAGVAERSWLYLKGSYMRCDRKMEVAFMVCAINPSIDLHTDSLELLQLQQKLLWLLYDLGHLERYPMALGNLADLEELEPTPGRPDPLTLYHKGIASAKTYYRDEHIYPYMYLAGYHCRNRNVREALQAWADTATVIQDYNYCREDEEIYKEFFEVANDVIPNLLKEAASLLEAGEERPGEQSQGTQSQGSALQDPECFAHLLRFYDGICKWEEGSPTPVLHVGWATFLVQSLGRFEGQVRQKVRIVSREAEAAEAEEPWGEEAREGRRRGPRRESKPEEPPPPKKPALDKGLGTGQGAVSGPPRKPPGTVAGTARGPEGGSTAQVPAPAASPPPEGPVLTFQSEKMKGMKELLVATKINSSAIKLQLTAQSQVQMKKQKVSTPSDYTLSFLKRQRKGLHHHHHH

MOLM14 cells = test: Proliferation assay (spheroid growth, 8 days), MOLM14; format: cell-based, human; conditions: Homo sapiens, MOLM-14, […], MOLM14, 8 days; read-out: spheroid assay_OneTime MOLM14 IC50;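 also: spheroid size read as confluence by live-cell imaging, compounds added at a range of concentrations with 0.3% DMSO, DMSO-treated wells = 0%, highest reference dose = low control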
OCI-AML3 cells = test: Proliferation assay (spheroid growth, 8 days), OCI-AML3; format: cell-based, human; conditions: Homo sapiens, OCI-AML-3, […], OCI-AML3, 8 days
Method in brief: (§1)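 Cells were seeded at 200 (MOLM14, OCI-AML3) or 300 (KO-52) per well in ultra-low attachment round-bottom plates with compounds at several concentrations, 0.3% DMSO, and grown 8 days at 37° C. Spheroid confluence was imaged on day 8; IC50 came from a variable-slope fit normalized to DMSO and high-dose reference compound.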

KO-52 cells = test: Proliferation assay (spheroid growth, 8 days), KO-52 control cell line; format: cell-based, human; conditions: Homo sapiens, […], read-out: spheroid assay_OneTime KO-52 IC50
Method in brief: as §1

MEIS1 mRNA = MEIS1 mRNA expression assay (Quantigene Singleplex) in MOLM14 cells; format: cell-based, human; conditions: Homo sapiens, MOLM-14, 48 h, 48 hours incubation;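 also: MEIS1 transcript levels read by probe hybridization and normalized to RPL28 mRNA, with IC50 fitted to fold changes across a rising compound concentration series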

IC50 [1] [nM]	IC50 (MOLM14 cells) [nM]	IC50 (OCI-AML3 cells) [nM]	IC50 (MEIS1 mRNA) [nM]	SMILES	IC50 (KO-52 cells) [nM]
2.13	> 940	3500	> 1000	CCN(C)CCC[C@@H](C(C)C)N1CC2(CCN(c3ncnnc3Oc3ccc(F)cc3C(=O)N(CC)C(C)C)C2)C1 (single isomer, unassigned) [Compound 133, (*S)—N-ethyl-2-((5-(2-(6-(ethyl(methyl)amino)-2-methylhexan-3-yl)-2,6-diazaspiro[3.4]octan-6-yl)-1,2,4-triazin-6-yl)oxy)-5-fluoro-N-isopropylbenzamide fumarate]	> 15000
0.54	140	480	220	CCN(C(=O)c1cc(F)ccc1Oc1nncnc1N1CCC2(C1)CN([C@H](CCN(C)CCO)C(C)C)C2)C(C)C (single isomer, unassigned) [Compound 270, (*R)—N-ethyl-5-fluoro-2-((5-(2-(1-((2-hydroxyethyl)(methyl)amino)-4-methylpentan-3-yl)-2,6-diazaspiro[3.4]octan-6-yl)-1,2,4-triazin-6-yl)oxy)-N-isopropylbenzamide fumarate]	> 15000
0.19	37	350	87	CCN(C(=O)c1cc(F)ccc1Oc1nncnc1N1CCC2(C1)CN([C@H](CCCN(C)CCCC(=O)N(C)C)C(C)C)C2)C(C)C [Compound 152, (R)-2-((5-(2-(6-((4-(dimethylamino)-4-oxobutyl)(methyl)amino)-2-methylhexan-3-yl)-2,6-diazaspiro[3.4]octan-6-yl)-1,2,4-triazin-6-yl)oxy)-N-ethyl-5-fluoro-N-isopropylbenzamide fumarate]	> 15000
0.13	23	38	13	CCN(C(=O)c1cc(F)ccc1Oc1nncnc1N1CCC2(C1)CN([C@H](CCCNCC(COC)OC)C(C)C)C2)C(C)C (stereo partly drawn) [Compound 172, 2-((5-(2-((3R)-6-((2,3-dimethoxypropyl)amino)-2-methylhexan-3-yl)-2,6-diazaspiro[3.4]octan-6-yl)-1,2,4-triazin-6-yl)oxy)-N-ethyl-5-fluoro-N-isopropylbenzamide fumarate]	13400
0.16	46	250	65	CCN(C(=O)c1cc(F)ccc1Oc1nncnc1N1CCC2(C1)CN([C@H](CCCN(C)CCO)C(C)C)C2)C(C)C [Compound 259, (R)-N-ethyl-5-fluoro-2-((5-(2-(6-((2-hydroxyethyl)(methyl)amino)-2-methylhexan-3-yl)-2,6-diazaspiro[3.4]octan-6-yl)-1,2,4-triazin-6-yl)oxy)-N-isopropylbenzamide fumarate]	> 15000
0.071	12	220	51	CCN(C(=O)c1cc(F)ccc1Oc1nncnc1N1CCC2(C1)CN([C@H](CCCN(C)CCCOC)C(C)C)C2)C(C)C [Compound 142, (R)-N-ethyl-5-fluoro-N-isopropyl-2-((5-(2-(6-((3-methoxypropyl)(methyl)amino)-2-methylhexan-3-yl)-2,6-diazaspiro[3.4]octan-6-yl)-1,2,4-triazin-6-yl)oxy)benzamide fumarate]	> 15000
0.079	23	44	17	CCN(C(=O)c1cc(F)ccc1Oc1nncnc1N1CCC2(C1)CN([C@H](CCCN(C)CC(C)C(=O)N(C)C)C(C)C)C2)C(C)C (stereo partly drawn) [Compound 181, 2-((5-(2-((3R)-6-((3-(dimethylamino)-2-methyl-3-oxopropyl)(methyl)amino)-2-methylhexan-3-yl)-2,6-diazaspiro[3.4]octan-6-yl)-1,2,4-triazin-6-yl)oxy)-N-ethyl-5-fluoro-N-isopropylbenzamide fumarate]	14000
0.13	460	1910	~260	CC(C)[C@@H](CCCN(C)[C@H](C)CC(N)=O)N1CC2(CCN(c3ncnnc3Oc3ccc(F)cc3C(=O)N(C(C)C)C(C)C)C2)C1 (single isomer, unassigned) [Compound 199, 2-((5-(2-((*R)-6-(((R)-4-amino-4-oxobutan-2-yl)(methyl)amino)-2-methylhexan-3-yl)-2,6-diazaspiro[3.4]octan-6-yl)-1,2,4-triazin-6-yl)oxy)-5-fluoro-N,N-diisopropylbenzamide fumarate]	> 15000
0.089	18	120	20	CCN(C(=O)c1cc(F)ccc1Oc1nncnc1N1CCC2(C1)CN([C@H](CCCN[C@@H](CO)COC)C(C)C)C2)C(C)C [Compound 163, N-ethyl-5-fluoro-2-((5-(2-((R)-6-(((S)-1-hydroxy-3-methoxypropan-2-yl)amino)-2-methylhexan-3-yl)-2,6-diazaspiro[3.4]octan-6-yl)-1,2,4-triazin-6-yl)oxy)-N-isopropylbenzamide]	> 15000
0.088	17	76	20	CC(C)[C@@H](C[C@H](O)CN(C)C)N1CC2(CCN(c3ncnnc3Oc3ccc(F)cc3C(=O)N(C(C)C)C(C)C)C2)C1 (single isomer, unassigned) [Compound 366]	> 15000
0.12	21	83	22	CCN(C(=O)c1cc(F)ccc1Oc1nncnc1N1CCC2(C1)CN([C@H](CCCN(C)[C@@H](C)COC)C(C)C)C2)C(C)C [Compound 157, N-ethyl-5-fluoro-N-isopropyl-2-((5-(2-((R)-6-((S)-1-methoxypropan-2-yl)(methyl)amino)-2-methylhexan-3-yl)-2,6-diazaspiro[3.4]octan-6-yl)-1,2,4-triazin-6-yl)oxy)benzamide fumarate]	13800
0.3	38	75	42	CC(C)[C@@H](CCCN(C)C[C@@H](C)C(N)=O)N1CC2(CCN(c3ncnnc3Oc3ccc(F)cc3C(=O)N(C(C)C)C(C)C)C2)C1 (single isomer, unassigned) [Compound 203, 2-((5-(2-((*R)-6-(((S)-3-amino-2-methyl-3-oxopropyl)(methyl)amino)-2-methylhexan-3-yl)-2,6-diazaspiro[3.4]octan-6-yl)-1,2,4-triazin-6-yl)oxy)-5-fluoro-N,N-diisopropylbenzamide fumarate]	> 15000
0.06	30	99	23	CCN(C(=O)c1cc(F)ccc1Oc1nncnc1N1CCC2(C1)CN([C@H](CCCN(C)[C@H](CO)COC)C(C)C)C2)C(C)C [Compound 165, N-ethyl-5-fluoro-2-(5-(2-((R)-6-((R)-1-hydroxy-3-methoxypropan-2-yl)(methyl)amino)-2-methylhexan-3-yl)-2,6-diazaspiro[3.4]octan-6-yl)-1,2,4-triazin-6-yl)oxy)-N-isopropylbenzamide fumarate]	> 15000
0.41	140	400	150	CCN(C(=O)c1cc(F)ccc1Oc1nncnc1N1CCC2(C1)CN(C(CC(C)(O)CN(C)CCOC)C(C)C)C2)C(C)C (stereo not drawn) [Compound 382, N-ethyl-5-fluoro-2-((5-(2-(5-hydroxy-6-((2-methoxyethyl)(methyl)amino)-2,5-dimethylhexan-3-yl)-2,6-diazaspiro[3.4]octan-6-yl)-1,2,4-triazin-6-yl)oxy)-N-isopropylbenzamide fumarate]	11800
0.21	390	830	~390	CCN(C(=O)c1cc(F)ccc1Oc1nncnc1N1CCC2(C1)CN([C@H](CCNCCCO)C(C)C)C2)C(C)C (single isomer, unassigned) [Compound 273, (*R)—N-ethyl-5-fluoro-2-((5-(2-(1-((3-hydroxypropyl)amino)-4-methylpentan-3-yl)-2,6-diazaspiro[3.4]octan-6-yl)-1,2,4-triazin-6-yl)oxy)-N-isopropylbenzamide]	> 15000
